Data reported in the supplement of paper PMC10307832.

Tests used:
Assay in all cases: relative viability (nuclei count vs DMSO), 5 days (fraction); higher = more cells survive
[1] = compound: C1COCCN1C2=NC(=NC3=C2OC4=C3C=CC=N4)C5=CC(=CC=C5)NC(=O)C6=CN=C(C=C6)N + CC(=O)Nc1cccc(-n2c(=O)n(C3CC3)c(=O)c3c(Nc4ccc(I)cc4F)n(C)c(=O)c(C)c32)c1 [Trametinib] (partner 0.02 µM)
In short: (§1)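 Lung cancer cell lines, seeded in 1536-well plates, were treated the following day by pin tool with a single drug or with five library-drug doses (not always all listed) in √10 steps on top of a fixed anchor-drug dose. Cells were fixed and nuclei stained in one step after 5 days, and nuclei were counted. Relative viability is the nuclei count for treated wells divided by that for vehicle wells, reported as medians of duplicate plates.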

[2] = compound: C1COCCN1C2=NC(=NC3=C2OC4=C3C=CC=N4)C5=CC(=CC=C5)NC(=O)C6=CN=C(C=C6)N + COc1cccc2cc(-c3nc([C@H]4CC[C@H](C(=O)O)CC4)n4ncnc(N)c34)[nH]c12 [OSI-027] (partner 0.5 µM)
In short: as §1

Entinostat + Linsitinib = compound: Nc1ccccc1NC(=O)c1ccc(CNC(=O)OCc2cccnc2)cc1 [Entinostat] + C[C@]1(O)C[C@@H](c2nc(-c3ccc4ccc(-c5ccccc5)nc4c3)c3c(N)nccn32)C1 [Linsitinib] (partner 1 µM)
In short: as §1

Entinostat + Tozasertib = compound: Nc1ccccc1NC(=O)c1ccc(CNC(=O)OCc2cccnc2)cc1 [Entinostat] + Cc1cc(Nc2cc(N3CCN(C)CC3)nc(Sc3ccc(NC(=O)C4CC4)cc3)n2)n[nH]1 [Tozasertib] (partner 0.1 µM)
In short: as §1

Cell Line	relative viability ([1]; first compound 0.02 µM)	relative viability ([1]; first compound 0.06325 µM)	relative viability ([1]; first compound 0.2 µM)	relative viability ([1]; first compound 0.6325 µM)	relative viability ([1]; first compound 2 µM)	relative viability ([2]; first compound 0.02 µM)	relative viability ([2]; first compound 0.06325 µM)	relative viability ([2]; first compound 0.2 µM)	relative viability ([2]; first compound 0.6325 µM)	relative viability ([2]; first compound 2 µM)	relative viability (Entinostat + Linsitinib; first compound 0.02 µM)	relative viability (Entinostat + Linsitinib; first compound 0.06325 µM)	relative viability (Entinostat + Linsitinib; first compound 0.2 µM)	relative viability (Entinostat + Linsitinib; first compound 0.6325 µM)	relative viability (Entinostat + Linsitinib; first compound 2 µM)	relative viability (Entinostat + Tozasertib; first compound 0.02 µM)	relative viability (Entinostat + Tozasertib; first compound 0.06325 µM)	relative viability (Entinostat + Tozasertib; first compound 0.2 µM)	relative viability (Entinostat + Tozasertib; first compound 0.6325 µM)	relative viability (Entinostat + Tozasertib; first compound 2 µM)
NCI-H1993	0.521	0.583	0.571	0.421	0.526	0.554	0.57	0.567	0.548	0.549	0.642	0.832	0.673	0.65	0.661	0.615	0.605	0.519	0.542	0.487
NCI-H2009	0.264	0.273	0.221	0.245	0.256	0.577	0.628	0.533	0.441	0.386	1.28	1.18	1.06	0.8	0.651	0.713	0.753	0.647	0.452	0.336
NCI-H2023	0.509	0.717	0.564	0.416	0.246	0.369	0.419	0.277	0.182	0.167	0.671	0.778	0.48	0.191	0.133	0.218	0.221	0.138	0.0768	0.0712
NCI-H2085	0.586	0.582	0.359	0.549	0.359	0.792	0.829	0.62	0.46	0.44	0.871	0.865	0.788	0.574	0.499	0.788	0.618	0.612	0.431	0.365
NCI-H2087	0.209	0.178	0.234	0.193	0.173	0.508	0.508	0.47	0.472	0.267	0.815	0.733	0.779	0.559	0.481	0.222	0.219	0.177	0.116	0.0873
NCI-H2126	0.592	0.569	0.618	0.547	0.45	0.664	0.767	0.652	0.675	0.708	0.732	0.707	0.618	0.518	0.367	0.812	0.758	0.614	0.38	0.262
NCI-H2228	0.578	0.615	0.449	0.48	0.454	0.51	0.606	0.519	0.485	0.251	0.587	0.635	0.578	0.365	0.354	0.258	0.142	0.207	0.0934	0.11
NCI-H2347	0.302	0.264	0.289	0.314	0.258	0.384	0.504	0.367	0.355	0.311	0.987	0.984	0.903	0.408	0.349	0.355	0.382	0.345	0.175	0.18
